# Results: patent publication US12521425B2, “Method of liver cancer treatment with safranal-based formulations” (priority 2019, dated 2026)
# Assays:
# [1] = tested on: DEN-induced hepatic neoplasia; assay: Liver gross and histopathological examination in DEN-induced HCC model; type: in vivo, male Wistar rats; settings: HCC rats
# Experimental: A modified version of the protocol described by DePeralta et al. (2016) and Schiffer et al. (2005) was used here to establish the hepatocarcinogenesis model.
# On the first 15 weeks, the control PBS group was treated with 1×PBS, whereas the experimental groups were given an intraperitoneal injection (IP) of 50 mg/kg of diethylnitrosoamine (DEN, Sigma Aldrich), a widely used chemical for inducing cancer, once a week. DEN was diluted with 1×PBS. Following a one-week break (week 16), the next three weeks (weeks 17 to 19) of treatment commenced. All drugs were administrated by oral gavage. All doses were chosen according to literature (Alsaied et al., 2014; Karafakioglu et al., 2017). For the HCC+sorafenib group, the drug (Carbosynth Limited) was administered at a dose of 10 mg/kg, five days a week. For the HCC+safranal group, the drug (Sigma Aldrich) was administered at a dose of 200 mg/kg, five days a week. For the HCC+safranal+sorafenib group, the drugs were administered at a dose of 200 mg/kg safranal+10 mg/kg sorafenib, five days a week. Both safranal and sorafenib were diluted with 1×PBS and drops of Tween 80. […] After 24-hours from last treatment, the rats were euthanized by mild diethyl ether and dissected in equal conditions. Blood and whole liver were collected.
# Liver sample specimens were fixed in 10% neutral buffered formalin, dehydrated in a series of graded ethanol, embedded in paraffin blocks, and cut into 3 μm-thick sections. To detect histopathological changes, sections were stained with hematoxylin and eosin (H&E), and reticulin stain kit according to the protocol provided (Abcam), then examined under light microscope (Ozkececi et al., 2016). Blinded examination of tissue samples was carried out by a pathologist from Tawam Hospital—United Arab Emirates.
# HepG2 cells [2] = assay: Annexin V binding assay; type: cell-based; settings: HepG2, 500 μM, after 48 hours; increase from 8%
# HepG2 cells [3] = assay: RNAseq differential gene expression and GO enrichment; type: cell-based, Homo sapiens; settings: for genes significantly differentially expressed: vs untreated
# Experimental: RNAseq libraries construction and sequencing. Total RNA was isolated from three biological replicates of safranal treatments and untreated sample using RNeasy Mini Kit (Qiagen) following the manufacturer's instructions. The RNAseq libraries were prepared using TruSeq RNA sample prep kit (Illumina, Inc.) following the manufacturer's instructions. Briefly, TruSeq RNA sample prep kit converts the poly-A containing mRNA in total RNA into a cDNA library using poly-T oligo-attached magnetic bead selection. Following mRNA purification, the RNA is chemically fragmented prior to reverse transcription and cDNA generation. The fragmentation step results in an RNAseq library that includes inserts that range in size from approximately 100-400 bp. The average insert size in an Illumina TruSeq RNA sequencing library is approximately 200 bp. The cDNA fragments then go through an end repair process, the addition of a single ‘A’ base to the 3′ end and then ligation of the adapters. Then, the products are purified and enriched with PCR to create the final double stranded cDNA libraries. Finally, libraries quality control and quantification were performed with a Bioanalyzer Chip DNA 1000 series II (Agilent) and sequenced directly using the high-throughput Illumina HiSeq sequencing system (Illumina, Inc.).
# Alignment and analysis of Illumina reads against the reference genome. The data was processed through the standard RNAseq analysis pipeline at NYUAD. Briefly, alignments were performed using tophat2 v2.1.0 with the parameters “-no-novel-junctions” and “-G” when specifying the genome file. Following the tophat2 alignment stage, read counts were generated using HTseq count, and the counts were analyzed using the DESeq2 R library. The reference genome and GFF annotation correspond to the Homo sapiens GRCh38.p2 genome version. Venn diagram summarizing the gene expression analysis was constructed using the web-based tool InteractiVenn. Heatmaps were produced by Excel.
# Gene set enrichment analysis. Functional and gene set enrichment analysis of DEGs was performed using eXploring Genomic Relations (XGR) which is an open source tool for enrichment analysis with default parameters. The enrichment test is based on Hypergeometric distribution to identify the enriched gene ontology terms. The false positive rate was calculated by simulating a random set of genes of different sizes and found they were independent of the size of gene sets. Network analysis of over-representation GO terms was performed using the Biological Networks Gene Ontology tool (BiNGO) plug-in for Cytoscape. BiNGO retrieved the relevant GO Biological process annotation then tested for significance using the hypergeometric test and corrected multiple testing using Benjamini and Hochberg false discovery rate (FDR) correction ≤0.05.
# HepG2 cells [4] = assay: Cell cycle analysis by flow cytometry; type: cell-based; settings: HepG2, 500 μM; for fraction of subG1 cells: DMSO control 0.9%
# Experimental: Cell cycle analysis. HepG2 cells were seeded at density of 3×10^6 cells per flask in complete growth medium and were allowed to attach overnight. After which, cells were treated with 500 μM of safranal for different time intervals (6-48 hours). At the indicated time intervals, cells were collected by incubation with trypsin and washed twice with PBS. Collected cells were fixed in 70% ethanol, treated with RNase and stained with propidium iodide. Cell cycle distribution was analyzed by flow cytometry in a FACS scan (Becton Dickenson, Germany).
# HepG2 cells [5] = assay: Cell morphology, crystal violet; type: cell-based; settings: HepG2, increasing doses, 24 hours
# Experimental: Cell morphology. HepG2 were seeded at a density of 0.25×10^6 cells/well in 6-well plate. After allowing the cell to attach, HepG2 cells were treated without or with different concentrations of safranal (30, 50, 100, 500, 700 μM) for 24 hrs. After which, cells were fixed and stained with crystal violet. The morphology of the cells was assessed after being fixed and stained with 0.5% crystal violet using IX53 microscope (Olympus).
smiles,measurement,setting,value
CC1=C(C=O)C(C)(C)CC=C1 [safranal],area of neoplastic foci (histology),"[1]; H&E, versus HCC",restoration of the normal architecture of the liver
same,number of liver nodules / lesions,[1]; comparing to HCC animals,reduced lesions
same,reticular fibers (reticulin staining),[1]; comparing to HCC group,reduced reticular fibers' breakage and restored their morphology
same,number of dead cells (annexin V),HepG2 cells [2],31%
same,genes downregulated,HepG2 cells [3]; 12 hours,"3,769 genes"
same,genes upregulated,HepG2 cells [3]; 12 hours,"2,812 genes"
same,genes significantly differentially expressed,HepG2 cells [3]; 12 hours,"6,581 genes"
same,genes downregulated,HepG2 cells [3]; 24 hours,"5,331 genes"
same,genes upregulated,HepG2 cells [3]; 24 hours,"2,458 genes"
same,genes significantly differentially expressed,HepG2 cells [3]; 24 hours,"7,789 genes"
same,"N, GO term Cell migration",HepG2 cells [3]; Downregulated 12 h,28
same,"N, GO term Growth",HepG2 cells [3]; Downregulated 12 h,27
same,"N, GO term Wound healing",HepG2 cells [3]; Downregulated 12 h,25
same,"N, GO term Cell adhesion",HepG2 cells [3]; Downregulated 24 h,149
same,"N, GO term Signal transduction",HepG2 cells [3]; Downregulated 24 h,327
same,"N, GO term Wound healing",HepG2 cells [3]; Downregulated 24 h,32
same,"N, GO term Cellular Response to DNA damage stimulus",HepG2 cells [3]; Upregulated 12 h,48
same,"N, GO term Proteasome-mediated ubiquitin-dependent protein catabolic process",HepG2 cells [3]; Upregulated 12 h,47
same,"N, GO term Response to unfolded protein",HepG2 cells [3]; Upregulated 12 h,14
same,"N, GO term Apoptotic mitochondrial changes",HepG2 cells [3]; Upregulated 24 h,6
same,"N, GO term Proteasome-mediated ubiquitin-dependent protein catabolic process",HepG2 cells [3]; Upregulated 24 h,50
same,"N, GO term Response to unfolded protein",HepG2 cells [3]; Upregulated 24 h,12
same,cell cycle distribution,HepG2 cells [4]; 6 and 12 hours post treatment,G2/M phase arrest
same,cell cycle distribution,HepG2 cells [4]; 24 hours,S-phase arrest
same,fraction of subG1 cells,HepG2 cells [4]; after 24 hours,6.3%
same,fraction of subG1 cells,HepG2 cells [4]; after 48 hours,26.2%
same,morphological changes,HepG2 cells [5],"morphological alterations including more rounded cell shapes, cell shrinkage, and increased detachment"
